Patent publication US20020137929A1, “1 - (3-heterocyclylphenyl) isothiourea, -isourea, -guanidine and -amidine herbicidal agents” (Intellectual Property Department, BASF Aktiengesellschaft, priority 1998, published 2002)

Key:
AMBEL (Ragweed, Common) [1] = assay: Postemergence herbicidal evaluation; assay type: in vivo, Ambrosia artemisifolia; settings: postemergence
Summary of the method: (§1)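 Two-week-old seedlings sprayed with compound in 50/50 acetone/water plus 0.5% TWEEN 20, at about 0.0156 to 0.500 kg/ha, nozzle at 40 psi. Kept in greenhouse; rated visually 4-5 weeks after treatment on a 0-9 scale versus control, repeat tests averaged.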

ORYSAT (Rice, Tebonnet) = assay: Postemergence herbicidal evaluation; assay type: in vivo, Oryza sativa, (L.) Tebonnet; settings: postemergence
Summary of the method: as §1

GALAP (Galium) = assay: Preemergence herbicidal evaluation; assay type: in vivo, Galium aparine; settings: rated 4-5 weeks after treatment
Summary of the method: (§2)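 Scores (0–9) reflect visual comparison with control plants for stand, vigor, malformation, size and chlorosis. Compound was applied to the soil after sowing, before emergence, as an aqueous acetone spray (about 0.0156–0.500 kg/ha), and cups were kept in a greenhouse for 4–5 weeks.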

ZEAMX (Corn, Field) = assay: Postemergence herbicidal evaluation; assay type: in vivo, Zea mays; settings: postemergence
Summary of the method: as §1

CYPSE (Flatsedge) [2] = assay: Preemergence weed control under flooded paddy conditions; assay type: in vivo, Cyperus serotinus; settings: rated 3-4 weeks after treatment
Summary of the method: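 First, seeds or propagules go into the top 0.5 cm of silt loam; next, water is held 1.5 to 3 cm over the soil; then compound (50/50 acetone/water) is pipetted into it at about 0.0313 to 0.500 kg/ha; finally plants are rated visually 0-9 after three to four weeks.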

[3] = tested on: CHEAL (Lambsquarters, Common); assay: Preemergence herbicidal evaluation; assay type: in vivo, Chenopodium album; settings: rated 4-5 weeks after treatment
Summary of the method: as §2

CYPIR (Rice Flatsedge) = assay: Postemergence weed control under flooded paddy conditions; assay type: in vivo, Cyperus iria; settings: postemergence weeds, 3-4 weeks after treatment
Summary of the method: (§3)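 Weeds 3 to 5 cm tall and rice seedlings at the 1.5 to 2.5 leaf stage were flooded, with water held 1.5 to 3 cm above the soil. Compounds in 50/50 v/v aqueous/acetone went into the flood water at about 0.0313 to 0.500 kg/ha. Visual 0-9 ratings versus control were made 3 to 4 weeks later.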

[4] = tested on: GLXMAW (Soybean, Williams); assay: Postemergence herbicidal evaluation; assay type: in vivo, Glycine max, (L.) Merr. cv Williams; settings: postemergence
Summary of the method: as §1

AMBEL (Ragweed, Common) [5] = assay: Preemergence herbicidal evaluation; assay type: in vivo, Ambrosia artemisifolia; settings: rated 4-5 weeks after treatment
Summary of the method: as §2

ECHCG (Barnyardgrass) = assay: Postemergence herbicidal evaluation; assay type: in vivo, Echinochloa crus-galli; settings: postemergence
Summary of the method: as §1

CASOB (Sicklepod) = assay: Preemergence herbicidal evaluation; assay type: in vivo, Cassia obtusifolia; settings: rated 4-5 weeks after treatment
Summary of the method: as §2

ABUTH (Velvetleaf) = assay: Postemergence herbicidal evaluation; assay type: in vivo, Abutilon theophrasti; settings: postemergence
Summary of the method: as §1

CYPSE (Flatsedge) [6] = assay: Postemergence weed control under flooded paddy conditions; assay type: in vivo, Cyperus serotinus; settings: postemergence weeds, 3-4 weeks after treatment
Summary of the method: as §3

[7] = tested on: CHEAL (Lambsquarters, Common); assay: Postemergence herbicidal evaluation; assay type: in vivo, Chenopodium album; settings: postemergence
Summary of the method: as §1

Work on CCOC(=O)CN1C(=O)C(=C2CCCC2)SC1=Nc1cc(-n2c(=O)cc(C(F)(F)F)n(C)c2=O)c(F)cc1Cl [Compound 18, Ethyl 2-{{2-chloro-5-[3,6-dihydro-3-methyl-2,6-dioxo-4-(trifluoromethyl)-1(2H)-pyrimidinyl]-4-fluorophenyl}imino}-5-cyclopentylidene-4-oxo-3-thiazolidineacetate] yielded an AMBEL herbicidal rating (AMBEL (Ragweed, Common) [1]; rate 0.0158 kg/ha) of 4.0, an AMBEL herbicidal rating (AMBEL (Ragweed, Common) [1]; rate 0.0315 kg/ha) of 9.0 and an AMBEL herbicidal rating (AMBEL (Ragweed, Common) [1]; rate 0.0630 kg/ha) of 7.0. The ORYSAT herbicidal rating (ORYSAT (Rice, Tebonnet); rate 0.0158 kg/ha) was 2.0, the ORYSAT herbicidal rating (ORYSAT (Rice, Tebonnet); rate 0.0315 kg/ha) was 1.5 and the ORYSAT herbicidal rating (ORYSAT (Rice, Tebonnet); rate 0.0630 kg/ha) was 1.5. The “GALAP preemergence herbicidal rating” value (GALAP (Galium); rate 0.1250 kg/ha) was 0.0, the “GALAP preemergence herbicidal rating” value (GALAP (Galium); rate 0.2500 kg/ha) was 9.0 and the ZEAMX herbicidal rating (ZEAMX (Corn, Field); rate 0.0158 kg/ha) was 4.0. The ZEAMX herbicidal rating (ZEAMX (Corn, Field); rate 0.0315 kg/ha) was 4.5, the ZEAMX herbicidal rating (ZEAMX (Corn, Field); rate 0.0630 kg/ha) was 4.0 and the “Herbicidal rating CYPSE” value (CYPSE (Flatsedge) [2]; 0.1160 kg/ha) was 0.0. The “Herbicidal rating CYPSE” value (CYPSE (Flatsedge) [2]; 0.2310 kg/ha) was 0.0, the “Herbicidal rating CYPSE” value (CYPSE (Flatsedge) [2]; 0.4630 kg/ha) was 4.0 and the “CHEAL preemergence herbicidal rating” value ([3]; rate 0.1250 kg/ha) was 8.0. The “CHEAL preemergence herbicidal rating” value ([3]; rate 0.2500 kg/ha) was 9.0, the “Herbicidal rating CYPIR” value (CYPIR (Rice Flatsedge); rate 0.1160 kg/ha) was 0.0 and the “Herbicidal rating CYPIR” value (CYPIR (Rice Flatsedge); rate 0.2310 kg/ha) was 0.0. The “Herbicidal rating CYPIR” value (CYPIR (Rice Flatsedge); rate 0.4630 kg/ha) was 0.0, the GLXMAW herbicidal rating ([4]; rate 0.0158 kg/ha) was 3.5 and the GLXMAW herbicidal rating ([4]; rate 0.0315 kg/ha) was 3.5. For the same molecule, the GLXMAW herbicidal rating ([4]; rate 0.0630 kg/ha) was 3.5, the “AMBEL preemergence herbicidal rating” value (AMBEL (Ragweed, Common) [5]; rate 0.1250 kg/ha) was 1.0 and the “AMBEL preemergence herbicidal rating” value (AMBEL (Ragweed, Common) [5]; rate 0.2500 kg/ha) was 4.0. For the same molecule, the ECHCG herbicidal rating (ECHCG (Barnyardgrass); rate 0.0158 kg/ha) was 1.0, the ECHCG herbicidal rating (ECHCG (Barnyardgrass); rate 0.0315 kg/ha) was 1.0 and the ECHCG herbicidal rating (ECHCG (Barnyardgrass); rate 0.0630 kg/ha) was 2.0. The “CASOB preemergence herbicidal rating” value (CASOB (Sicklepod); rate 0.1250 kg/ha) was 0.0, the “CASOB preemergence herbicidal rating” value (CASOB (Sicklepod); rate 0.2500 kg/ha) was 0.0 and the ABUTH herbicidal rating (ABUTH (Velvetleaf); rate 0.0158 kg/ha) was 9.0. For the same molecule, the ABUTH herbicidal rating (ABUTH (Velvetleaf); rate 0.0315 kg/ha) was 9.0, the ABUTH herbicidal rating (ABUTH (Velvetleaf); rate 0.0630 kg/ha) was 9.0 and the “Herbicidal rating CYPSE” value (CYPSE (Flatsedge) [6]; rate 0.1160 kg/ha) was 0.0. For the same molecule, the “Herbicidal rating CYPSE” value (CYPSE (Flatsedge) [6]; rate 0.2310 kg/ha) was 0.0, the “Herbicidal rating CYPSE” value (CYPSE (Flatsedge) [6]; rate 0.4630 kg/ha) was 4.0 and the CHEAL herbicidal rating ([7]; rate 0.0158 kg/ha) was 6.0. It also gave a CHEAL herbicidal rating ([7]; rate 0.0315 kg/ha) of 9.0 and a CHEAL herbicidal rating ([7]; rate 0.0630 kg/ha) of 9.0.
